From US20250197425A1, “2,6,9-TRISUBSTITUTED PURINES” (ASTRAZENECA AB, priority 2022, published 2025)
≈ marks a conversion by molar mass, not a printed value.

Tests used:
CDK2:CCNE1 = CDK2:CCNE1 (Homo sapiens (Human), UniProt P24941); assay: NanoBRET assay in MCF-7 cells, CDK2; format: cell-based; details: transfected MCF-7 cells, 2 hours, n = 1 or average
Experimental: Compounds were tested in breast cancer cell line MCF-7 to assess inhibition of CDK1, CDK2, and CDK4 activity. […] The next day media were evacuated from the wells using the Bluewasher centrifugal plate washer (Bluecatbio) and 10 μL/well phenol red free OptiMEM was then added using a Multidrop Combi. […] Immediately after compound addition, a Tecan HP300 dispensor was used to dispense the relevant NanoBRET™ tracer to the CDK1 wells (12.5 nl, 400 μM, NanoBRET™ TE Tracer K-9), the CDK2 wells (12.5 nl, 200 μM, NanoBRET™ TE Tracer K-9), and the CDK4 wells (8 nl, 100 μM, NanoBRET™ TE Tracer K-7) and the plates were incubated for 2 hours at 37° C. and 5% CO2. […] The plates were incubated in subdued lighting for 10 minutes and then read on a Pherastar FS plate reader (BMG Technologies) using a NanoBRET™ filter module (460±80 nm/610 nm-LP). The ratio values were normalized to controls and the IC50 values of test compounds determined using Genedata Screener software.

CDK1:CCNB1 = CDK1:CCNB1 (Homo sapiens (Human), UniProt P06493); assay: NanoBRET assay in MCF-7 cells, CDK1; format: cell-based; details: NanoBRET, transfected MCF-7 cells, 2 hours; n = 1 or average; read-out: CDK1 IC50
Experimental: (§1) Compounds were tested in breast cancer cell line MCF-7 to assess inhibition of CDK1, CDK2, and CDK4 activity. MCF-7 cells transiently transfected with CDK1:CCNB1, CDK2:CCNE1, or CDK4:CCND1 were harvested at a density of 1E5 cells/mL in complete media, seeded 20 μL/well into 384-well Greiner 784080 plates using a Multidrop Combi, and incubated overnight at 37° C. and 5% CO2. The next day media were evacuated from the wells using the Bluewasher centrifugal plate washer (Bluecatbio) and 10 μL/well phenol red free OptiMEM was then added using a Multidrop Combi. […] Immediately after compound addition, a Tecan HP300 dispensor was used to dispense the relevant NanoBRET™ tracer to the CDK1 wells (12.5 nl, 400 μM, NanoBRET™ TE Tracer K-9), the CDK2 wells (12.5 nl, 200 μM, NanoBRET™ TE Tracer K-9), and the CDK4 wells (8 nl, 100 μM, NanoBRET™ TE Tracer K-7) and the plates were incubated for 2 hours at 37° C. and 5% CO2. The plates were allowed to cool for 10 minutes at room temperature and 5 μL/well of TE Nano-Glo®Substrate/Inhibitor at 2.4 μM and 1:500 respectively (N2162 Promega) was added. The plates were incubated in subdued lighting for 10 minutes and then read on a Pherastar FS plate reader (BMG Technologies) using a NanoBRET™ filter module (460±80 nm/610 nm-LP). The ratio values were normalized to controls and the IC50 values of test compounds determined using Genedata Screener software.

CDK4:CCND1 = CDK4:CCND1 (Homo sapiens (Human), UniProt P11802); assay: NanoBRET assay in MCF-7 cells, CDK4; format: cell-based; details: NanoBRET, transfected MCF-7 cells, 2 hours; n = 1 or average; read-out: CDK4 IC50
Experimental: as §1

[1] = test system: NPM phosphorylation (Thr199, CDK2-cyclin E complex); assay: NPM phosphorylation imaging assay in MCF-7 cells; format: cell-based; details: Homo sapiens, 4N DNA cells
Experimental: Compounds were tested to assess the effects of CDK2 inhibition in a cellular context. […] During the cell cycle, the CDK2-cyclin E complex phosphorylates NPM at Thr199 which is a prerequisite step for initiation of centrosome duplication.
The cells were fixed by addition of 40 μL/well of 8% paraformaldehyde and incubated at room temperature for 10 minutes. The plates were washed three times with 50 μL/well PBS using a Biotek EL406 plate washer and then permeabilized for 10 minutes at room temperature in 0.3% Triton X100 in PBS. After washing as before, the plates were blocked using 30 μL/well of 2% BSA (w/v) in PBS-T for at least 30 minutes at room temperature. […] Cells containing 4N DNA were selected using the Hoechst staining. Phospho-NPM levels were normalized to controls and the IC50 values of test compounds determined using Genedata Screener software.

[2] = test system: POLR2A Ser2 phosphorylation (CDK9); assay: POLR2A Ser2 phosphorylation imaging assay in MCF-7 cells; format: cell-based; details: Homo sapiens, MCF7, 2 h, MCF-7 cells, 2 hours; read-out: POLR2A Ser2 phosphorylation IC50
Experimental: Compounds were tested to assess their effect on CDK9 activity in a cellular context. […] During the cell cycle, CDK9 is a component of a multiprotein complex that phosphorylates POLR2A Ser2 which results in transcription elongation.
[…] were fixed by addition of 40 μL/well of 8% paraformaldehyde and incubated for 10 minutes at room temperature. The plates were washed three times with 50 μL/well PBS using a Biotek EL406 plate washer and then permeabilized for 10 minutes at room temperature in 0.3% Triton X100 in PBS. After washing as before, the plates were blocked using 30 μL/well of 2% BSA (w/v) in PBS-T for over 30 minutes at room temperature. […] After washing in PBS as before, leaving each well in 40 μL of PBS, the plates were sealed and imaged on a Cell Insight imaging system (Thermo) with a 10× objective and 2 fields of view per well. POLR2A Ser2levels were normalized to controls and the IC50 values of test compounds determined using Genedata Screener software.

MCF-7 cells = assay: Cellular proliferation EdU assay, MCF-7; format: cell-based; details: Homo sapiens, MCF7, 48 h, EdU assay, two days; read-out: MCF-7 IC50
Experimental: (§2) Compounds were tested to assess inhibition of cellular proliferation in the breast cancer cell line MCF-7 and the CCNE1-amplified ovarian cell line OVCAR3.
(§3) MCF-7 and OVCAR3 cells in RPMI supplemented with 10% Fetal bovine serum were seeded into 384-well plates (Greiner, Kremsmunster, Austria; 781091), 30 μL/well, using a WellMate. The MCF7 and OVCAR3 cells were seeded at 800 and 1200 cells/well, respectively. Test compounds were added to the wells using an Echo 555 liquid handler and the plates were placed in incubator maintained at 37° C. and 5% CO2 and incubated for two days. On Day 2, an EdU assay was performed following the manufacturer's protocol (Thermo Fisher, C10351). The cells were read on an Acumen eX3 instrument. The IC50 values of test compounds were determined in Genedata by assessing the ratio of signal intensity at 488 nm to the area of signal at 405 nm.

OVCAR3 cells = assay: Cellular proliferation EdU assay, OVCAR3; format: cell-based, human; details: Homo sapiens, OVCAR-3, 48 h, EdU assay, two days; read-out: OVCAR3 IC50
Experimental: as §2, §3

[3] = CLint assessment in human liver microsomes (HLM); format: in vitro ADME; details: 1 μM
Experimental: After a preincubation with NADPH for 8 minutes, reactions were initiated through the addition of the test compound (final volume 250 μl) and incubated at 37° C. in a water bath for 30 minutes. […] Samples were shaken at 800 rpm for 2 minutes and centrifuged at 4000 rpm for 20 minutes at 4° C. to pellet precipitated protein. The supernatant fraction was diluted 1:5 with deionized water, shaken at 1000 rpm for 2 minutes, and further diluted 1:1 with deionized water. Samples were analyzed by LC-MS/MS. The t1/2 and the CLint of the compounds incubated in the LM, HLM, and HμREL assays as described above were calculated according to the following equations: […] where V (μl/×10^6 cells or mg protein) is the incubation volume (μl) divided by the number of cells (×10^6) or microsomal protein content (mg) in the incubation.

[4] = Aqueous thermodynamic solubility, shake-flask; format: physicochemical; details: aqueous phosphate buffer, 25 °C, pH 7.4, aqueous buffer, thermodynamic from solid, phosphate buffer 0.1 M, pH 7.4, 24 hours
Experimental: The DMSO was evaporated and the dried compounds were equilibrated in glass vials in aqueous phosphate buffer (0.1 M, pH 7.4) for 24 hours at 25° C. under constant stirring. The portion with the dissolved compound was then separated from the remainder through a double centrifugation with a tip wash in between to ensure that no residues of the dried compound were interfering. The solutions were diluted with purified water before quantification using UPLC/MS/MS.

CDK1:CCNB1, sequence (P06493 whole entry): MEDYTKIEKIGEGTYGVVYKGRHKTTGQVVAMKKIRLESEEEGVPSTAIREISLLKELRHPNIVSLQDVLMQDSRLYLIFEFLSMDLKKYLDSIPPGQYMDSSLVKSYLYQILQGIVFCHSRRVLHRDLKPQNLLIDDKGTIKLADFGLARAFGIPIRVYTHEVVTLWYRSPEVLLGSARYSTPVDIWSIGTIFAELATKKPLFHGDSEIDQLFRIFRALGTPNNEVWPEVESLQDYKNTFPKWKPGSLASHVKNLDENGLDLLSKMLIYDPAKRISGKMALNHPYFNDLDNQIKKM
CDK1:CCNB1, sequence (P14635 whole entry partner): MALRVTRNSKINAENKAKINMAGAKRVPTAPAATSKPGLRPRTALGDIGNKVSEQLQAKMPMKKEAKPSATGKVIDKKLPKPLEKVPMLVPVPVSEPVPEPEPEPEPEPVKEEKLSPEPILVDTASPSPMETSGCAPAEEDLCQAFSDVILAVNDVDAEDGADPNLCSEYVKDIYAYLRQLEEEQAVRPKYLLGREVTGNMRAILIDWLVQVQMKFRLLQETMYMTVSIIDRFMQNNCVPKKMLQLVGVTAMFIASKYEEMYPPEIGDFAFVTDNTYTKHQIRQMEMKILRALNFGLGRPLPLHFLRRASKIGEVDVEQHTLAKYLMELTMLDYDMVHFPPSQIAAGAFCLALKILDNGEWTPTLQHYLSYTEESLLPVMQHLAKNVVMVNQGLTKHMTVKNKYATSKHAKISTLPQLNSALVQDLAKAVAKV
CDK4:CCND1, sequence (P11802 whole entry): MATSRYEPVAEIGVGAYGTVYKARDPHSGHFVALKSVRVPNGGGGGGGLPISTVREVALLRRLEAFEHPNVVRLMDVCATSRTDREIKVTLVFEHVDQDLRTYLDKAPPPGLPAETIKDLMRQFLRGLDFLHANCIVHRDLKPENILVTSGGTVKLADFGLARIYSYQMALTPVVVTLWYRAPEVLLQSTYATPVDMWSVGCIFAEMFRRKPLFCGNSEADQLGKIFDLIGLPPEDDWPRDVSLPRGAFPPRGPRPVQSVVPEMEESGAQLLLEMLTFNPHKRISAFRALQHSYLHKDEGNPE
CDK4:CCND1, sequence (P24385 whole entry partner): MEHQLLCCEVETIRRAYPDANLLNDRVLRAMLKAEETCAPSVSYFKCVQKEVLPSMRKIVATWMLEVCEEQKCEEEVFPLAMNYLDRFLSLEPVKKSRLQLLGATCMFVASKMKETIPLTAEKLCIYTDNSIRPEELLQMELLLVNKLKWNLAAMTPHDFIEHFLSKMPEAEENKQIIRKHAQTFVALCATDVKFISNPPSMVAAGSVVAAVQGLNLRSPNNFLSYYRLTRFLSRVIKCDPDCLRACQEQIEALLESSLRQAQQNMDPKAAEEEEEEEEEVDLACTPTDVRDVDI

Compound	IC50 (CDK2:CCNE1) [nM]	IC50 (CDK1:CCNB1) [nM]	IC50 (CDK4:CCND1) [nM]	IC50 ([1]; MCF7, 2 h) [nM]	IC50 [2] [nM]	IC50 (MCF-7 cells) [nM]	IC50 (OVCAR3 cells) [nM]	HLM CLint [3] [µL/min/mg]	solubility at 24 h [4] [µM]	IC50 ([1]; MCF7, 2 hours) [nM]
CCn1cnc2c(N[C@H]3CCN(S(=O)(=O)NC)C3)nc(-c3cccc4c3CC[C@H]4O)nc21 [Example 2, (S)-3-((9-ethyl-2-((R)-1-hydroxy-2,3-dihydro-1H-inden-4-yl)-9H-purin-6-yl)amino)-N-methylpyrrolidine-1-sulfonamide]	29	904	17800	301	15400	1360	404	61.6	55 (≈ 25.2 µg/mL)	–
CC[C@H](CO)Nc1nc(N[C@H]2CCN(S(C)(=O)=O)C2)c2ncn(CC)c2n1 [Example 38, (R)-2-((9-ethyl-6-(((S)-1-(methylsulfonyl)pyrrolidin-3-yl)amino)-9H-purin-2-yl)amino)butan-1-ol]	21	1040	6000	–	> 30000	2310	782	–	–	392
CC(C)[C@H](CO)Nc1nc(N[C@H]2C[C@H](C)N(S(C)(=O)=O)C2)c2ncn(C(C)C)c2n1 [Example 35, (R)-2-((9-isopropyl-6-(((3S,5S)-5-methyl-1-(methylsulfonyl)-pyrrolidin-3-yl)amino)-9H-purin-2-yl)amino)-3-methylbutan-1-ol]	52	6080	11200	–	> 30000	3330	1620	>300	26.4 (≈ 11.6 µg/mL)	1220
C[C@H](Nc1nc(N[C@@H]2CN(S(=O)(=O)c3ncc[nH]3)C[C@H]2F)c2ncn(C(F)F)c2n1)[C@@H](O)C(F)(F)F (relative stereo) [Example 57, (2R,3S)-3-((6-(((3R*,4R*)-1-((1H-imidazol-2-yl)sulfonyl)-4-fluoropyrrolidin-3-yl)amino)-9-(difluoromethyl)-9H-purin-2-yl)amino)-1,1,1-trifluorobutan-2-ol]	11	186	1500	55	4400	200	155	33.5	884 (≈ 480 µg/mL)	–
CC[C@H](Nc1nc(N[C@H]2CCN(S(=O)(=O)NC[C@@H]3COCCO3)C2)c2ncn(CC)c2n1)[C@@H](C)O [Example 25, (S)—N—(((R)-1,4-dioxan-2-yl)methyl)-3-((9-ethyl-2-(((2R,3S)-2-hydroxypentan-3-yl)amino)-9H-purin-6-yl)amino)pyrrolidine-1-sulfonamide]	69	3990	> 29700	–	> 30000	1430	642	61.6	912 (≈ 468 µg/mL)	624
CC[C@H](Nc1nc(N[C@H]2C[C@@H](C)N(S(C)(=O)=O)C2)c2ncn(C(C)C)c2n1)[C@@H](C)O [Example 37, (2R,3S)-3-((9-isopropyl-6-(((3S,5R)-5-methyl-1-(methylsulfonyl)-pyrrolidin-3-yl)amino)-9H-purin-2-yl)amino)pentan-2-ol]	61	4590	> 29700	–	> 30000	2790	1300	143	414 (≈ 182 µg/mL)	879
CC(C)[C@H](CO)Nc1nc(N[C@@H]2CN(S(C)(=O)=O)C[C@H]2F)c2ncn(C(C)C)c2n1 [Example 33, (R)-2-((6-(((3R,4R)-4-fluoro-1-(methylsulfonyl)pyrrolidin-3-yl)amino)-9-isopropyl-9H-purin-2-yl)amino)-3-methylbutan-1-ol]	26	5750	8100	–	> 30000	2970	880	–	–	752
CC[C@H](Nc1nc(N[C@H]2CCN(S(=O)(=O)NC)C2)c2ncn(C(F)F)c2n1)[C@@H](C)O [Example 55, (S)-3-((9-(difluoromethyl)-2-(((2R,3S)-2-hydroxypentan-3-yl)amino)-9H-purin-6-yl)amino)-N-methylpyrrolidine-1-sulfonamide]	–	–	–	–	14400	514	147	–	> 1000	142
